According to patent US20240308968A1, “FUNGICIDAL SUBSTITUTED HETEROCYCLES” (FMC Corporation, priority 2021, published 2024):

Tests used:
Alternaria solani = experiment: Test F: preventive spray on tomato seedlings, tomato early blight disease rating; assay type: in vivo; conditions: Alternaria solani, 120 h, 50 ppm, 100 = 100% disease control, 0 = no control
Summary of the method: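 Tomato seedlings were sprayed to run-off with compound suspensions in ppm (acetone/water with PEG400 surfactant) and inoculated with Alternaria solani spores the next day. Plants were held 48 h saturated at 27 °C, then 3 days at 20 °C. Disease was rated visually, with 100 as full control and 0 as none, relative to controls.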

[1] = system: Puccinia recondita f. sp. Tritici; experiment: Test B: preventive spray on wheat seedlings, wheat leaf rust disease rating; assay type: in vivo; conditions: Puccinia recondita, 192 h, 50 ppm, 100 = 100% disease control, 0 = no control
Summary of the method: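 Compounds in acetone/water (50/50) with 50-250 ppm PEG400 sprayed to run-off on wheat seedlings; inoculated with P. recondita spores next day. Held 24 h saturated at 20° C., then 7 days in growth chamber at 20° C. before rating; 100 = full control, 0 = none versus controls.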

Phakopsora pachyrhizi = experiment: Test D: preventive spray on soybean seedlings, Asian soybean rust disease rating; assay type: in vivo; conditions: Phakopsora pachyrhizi, 216 h, 50 ppm, 100 = 100% disease control, 0 = no control
Summary of the method: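 Compounds in acetone/water (50/50) with 50–250 ppm PEG400 sprayed to run-off on soybean seedlings; inoculated next day with P. pachyrhizi spores, held 24 h saturated at 22° C, then 8 days at 22° C before visual disease rating.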

Botrytis cinerea = experiment: Test E: preventive spray on tomato seedlings, tomato Botrytis disease rating; assay type: in vivo; conditions: Botrytis cinerea, 120 h, 50 ppm, 100 = 100% disease control, 0 = no control
Summary of the method: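 Tomato seedlings sprayed to run-off with compound suspended in acetone/water with PEG400 surfactant, then inoculated next day with Botrytis cinerea spores. Held 48 h saturated at 20 °C, then 3 days at 24 °C; disease rated visually, 0 to 100% control relative to controls.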

[2] = system: Blumeria graminis f. sp. Tritici; experiment: Test C: preventive spray on wheat seedlings, wheat powdery mildew disease rating; assay type: in vivo; conditions: Blumeria graminis, 192 h, 50 ppm, 100 = 100% disease control, 0 = no control
Summary of the method: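 Wheat seedlings sprayed to run-off with test suspension (acetone 3% dissolution, then acetone/water 50/50 with 50–250 ppm PEG400), inoculated next day with Blumeria graminis spore dust. Held 8 days at 20° C in growth chamber, then visually rated (100 = full control, 0 = none, relative to controls).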

Zymoseptoria tritici = experiment: Test A: preventive spray on wheat seedlings, wheat leaf blotch disease rating; assay type: in vivo; conditions: Zymoseptoria tritici, 456 h, 50 ppm, 100 = 100% disease control, 0 = no control
Summary of the method: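 Compounds in acetone/water (50/50) with 50–250 ppm PEG400, sprayed to run-off on wheat seedlings. Inoculated next day with Z. tritici spores, 48 h saturated atmosphere at 24 °C, then 17 days at 20 °C before disease rating.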

Row | Compound | pest or weed control at 50 ppm (Alternaria solani) [%] | pest or weed control at 50 ppm [1] [%] | pest or weed control at 50 ppm (Phakopsora pachyrhizi) [%] | melting point [°C] | pest or weed control at 50 ppm (Botrytis cinerea) [%] | pest or weed control at 50 ppm [2] [%] | pest or weed control at 50 ppm (Zymoseptoria tritici) [%]
1 | COc1cc(OC)c(Cl)c(-n2nc(Cl)c(=O)c(C)c2-c2ccc(F)cc2Cl)c1 [Compound 92, 3-chloro-6-(2-chloro-4-fluorophenyl)-1-(2-chloro-3,5-dimethoxyphenyl)-5-methyl-4(1H)-pyridazinone] | 99 | 100 | 100 | 192 to 195 | 96 | 99 | 100
2 | COc1cc(OC)c(Cl)c(-n2nc(Br)c(=O)c(C)c2-c2ccc(F)cc2Cl)c1 [Compound 94, 3-bromo-6-(2-chloro-4-fluorophenyl)-1-(2-chloro-3,5-dimethoxyphenyl)-5-methyl-4(1H)-pyridazinone] | 100 | 100 | 100 | 191 to 194 | 98 | 100 | 100
3 | COc1cc(OC)cc(-n2nc(C)c(=O)c(C)c2-c2ccc(F)cc2Cl)c1 [Compound 97, 6-(2-chloro-4-fluorophenyl)-3,5-dimethyl-1-(3,5-dimethoxyphenyl)-4(1H)-pyridazinone] | 100 | 100 | 100 | 148 to 151 | 96 | 99 | 100
4 | COc1ccc(Cl)c(-n2nc(C)c(=O)c(Cl)c2-c2ccc(F)cc2)c1 [Compound 105, 5-chloro-1-(2-chloro-5-methoxyphenyl)-6-(4-fluorophenyl)-3-methyl-4(1H)-pyridazinone] | 100 | 100 | 96 | 207 to 210 | 98 | 95 | 100
5 | COc1cc(OC)c(Cl)c(-c2cc(C#N)c(=O)n(C)c2-c2ccc(F)cc2Cl)c1 [Compound 156, 5-(2-chloro-3,5-dimethoxyphenyl)-6-(2-chloro-4-fluorophenyl)-1,2-dihydro-1-methyl-2-oxo-3-pyridinecarbonitrile] | 91 | 100 | 99 | 209 to 211 | 98 | 98 | 100
6 | CCn1c(-c2ccc(F)cc2Cl)c(-c2cc(OC)cc(OC)c2Cl)cc(C#N)c1=O [Compound 157, 5-(2-chloro-3,5-dimethoxyphenyl)-6-(2-chloro-4-fluorophenyl)-1,2-dihydro-1-ethyl-2-oxo-3-pyridinecarbonitrile] | 98 | 100 | 97 | 100 to 103 | 99 | 96 | 100
